Consider 23 compounds from patent publication US11759462B2, “Spirocyclic compounds as tryptophan hydroxylase inhibitors” (priority 2013, dated 2023).

The target of this assay is T1, Recombinant human TPH1 (MBP tagged) (Homo sapiens, UniProt P17752).
T1 construct: cloning full length human TPH1 cDNA in to a bacterial pMAL-c5E expression vector; made in house; host or cells: E. coli BL21 (DE3)
T1 sequence (P17752 1-444): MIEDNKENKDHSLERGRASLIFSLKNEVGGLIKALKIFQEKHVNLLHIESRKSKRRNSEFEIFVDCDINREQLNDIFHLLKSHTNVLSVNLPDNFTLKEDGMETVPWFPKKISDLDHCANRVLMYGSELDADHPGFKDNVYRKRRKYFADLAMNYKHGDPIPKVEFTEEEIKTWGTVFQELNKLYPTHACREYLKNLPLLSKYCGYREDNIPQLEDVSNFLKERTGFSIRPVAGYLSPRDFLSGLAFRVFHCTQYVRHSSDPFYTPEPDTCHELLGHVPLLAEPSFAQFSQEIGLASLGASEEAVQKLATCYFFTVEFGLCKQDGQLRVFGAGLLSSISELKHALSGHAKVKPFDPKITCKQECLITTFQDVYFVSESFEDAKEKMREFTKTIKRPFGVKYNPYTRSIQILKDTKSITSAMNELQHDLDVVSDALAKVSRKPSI
The experiment in a line: TPH1 in vitro inhibition assay (kinetic fluorescence). The assay is classed as biochemical. Conditions: read-out: TPH1 Range (TPH1 inhibition IC50). The method in brief: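 Final mix: 15 nM MBP-TPH1, 30 μM Trp, 36 μM 6-methyltetrahydropterin, 25 μM ferrous ammonium sulfate, 50 mM MES pH 7.1, 1% DMSO, room temperature.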

Usually IC50 stands for the midpoint of a concentration-inhibition curve.

Regarding `Nc1nc(O[C@H](c2ccc(-c3cccc(O)c3)cc2)C(F)(F)F)cc(N2CCC3(CC2)CN[C@H](C(=O)O)C3)n1` [Example 55ca, (S)-8-(2-amino-6-((R)-2,2,2-trifluoro-1-(3′-hydroxy-[1,1′-biphenyl]-4-yl)ethoxy)pyrimidin-4-yl)-2,8-diazaspiro[4.5]decane-3-carboxylic acid], the IC50 fell in the range of 50 to 300 nM.

Take `Nc1nc(O[C@H](c2ccc(-c3ccc(O)cc3)cc2)C(F)(F)F)cc(N2CCC3(CC2)CN[C@H](C(=O)O)C3)n1` [Example 55cb, (S)-8-(2-amino-6-((R)-2,2,2-trifluoro-1-(4′-hydroxy-[1,1′-biphenyl]-4-yl)ethoxy)pyrimidin-4-yl)-2,8-diazaspiro[4.5]decane-3-carboxylic acid]: the concentration for half-maximal inhibition (IC50) fell in the range of 50 to 300 nM.

For the compound `COc1ccc(-c2ccc([C@@H](Oc3cc(N4CCC5(CC4)CN[C@H](C(=O)O)C5)nc(N)n3)C(F)(F)F)cc2)c(OC)c1` [Example 55cc, (S)-8-(2-amino-6-((R)-1-(2′,4′-dimethoxy-[1,1′-biphenyl]-4-yl)-2,2,2-trifluoroethoxy)pyrimidin-4-yl)-2,8-diazaspiro[4.5]decane-3-carboxylic acid], the IC50 was in the range of 50 to 300 nM. `Nc1nc(O[C@H](c2ccc(-c3ccc(C(F)(F)F)cc3)cc2)C(F)(F)F)cc(N2CCC3(CC2)CN[C@H](C(=O)O)C3)n1` [Example 55cd, (S)-8-(2-amino-6-((R)-2,2,2-trifluoro-1-(4′-(trifluoromethyl)-[1,1′-biphenyl]-4-yl)ethoxy)pyrimidin-4-yl)-2,8-diazaspiro[4.5]decane-3-carboxylic acid]: the concentration for half-maximal inhibition (IC50) fell in the range of 300 to 3000 nM. On to `Nc1nc(O[C@H](c2ccc(-c3ccccc3C(F)(F)F)cc2)C(F)(F)F)cc(N2CCC3(CC2)CN[C@H](C(=O)O)C3)n1` [Example 55ce, (S)-8-(2-amino-6-((R)-2,2,2-trifluoro-1-(2′-(trifluoromethyl)-[1,1′-biphenyl]-4-yl)ethoxy)pyrimidin-4-yl)-2,8-diazaspiro[4.5]decane-3-carboxylic acid], for which the IC50 fell in the range of 300 to 3000 nM. For the compound `Nc1nc(O[C@H](c2ccc(-c3c(F)cccc3F)cc2)C(F)(F)F)cc(N2CCC3(CC2)CN[C@H](C(=O)O)C3)n1` [Example 55cf, (S)-8-(2-amino-6-((R)-1-(2′,6′-difluoro-[1,1′-biphenyl]-4-yl)-2,2,2-trifluoroethoxy)pyrimidin-4-yl)-2,8-diazaspiro[4.5]decane-3-carboxylic acid], the IC50 lay in the range of 3000 to 10000 nM. Take `Cc1cccc(C)c1-c1ccc([C@@H](Oc2cc(N3CCC4(CC3)CN[C@H](C(=O)O)C4)nc(N)n2)C(F)(F)F)cc1` [Example 55cg, (S)-8-(2-amino-6-((R)-1-(2′,6′-dimethyl-[1,1′-biphenyl]-4-yl)-2,2,2-trifluoroethoxy)pyrimidin-4-yl)-2,8-diazaspiro[4.5]decane-3-carboxylic acid]: the IC50 was 300 to 3000 nM. The value for `Cc1ccc(-c2ccc([C@@H](Oc3cc(N4CCC5(CC4)CN[C@H](C(=O)O)C5)nc(N)n3)C(F)(F)F)cc2)cc1C` [Example 55ch, (S)-8-(2-amino-6-((R)-1-(3′,4′-dimethyl-[1,1′-biphenyl]-4-yl)-2,2,2-trifluoroethoxy)pyrimidin-4-yl)-2,8-diazaspiro[4.5]decane-3-carboxylic acid] was 50 to 300 nM.

`CC(C)(C)c1ccc(-c2ccc([C@@H](Oc3cc(N4CCC5(CC4)CN[C@H](C(=O)O)C5)nc(N)n3)C(F)(F)F)cc2)cc1` [Example 55ci, (S)-8-(2-amino-6-((R)-1-(4′-(tert-butyl)-[1,1′-biphenyl]-4-yl)-2,2,2-trifluoroethoxy)pyrimidin-4-yl)-2,8-diazaspiro[4.5]decane-3-carboxylic acid]: the IC50 fell in the range of 300 to 3000 nM.

For `CC(C)c1ccc(-c2ccc([C@@H](Oc3cc(N4CCC5(CC4)CN[C@H](C(=O)O)C5)nc(N)n3)C(F)(F)F)cc2)cc1` [Example 55cj, (S)-8-(2-amino-6-((R)-2,2,2-trifluoro-1-(4′-isopropyl-[1,1′-biphenyl]-4-yl)ethoxy)pyrimidin-4-yl)-2,8-diazaspiro[4.5]decane-3-carboxylic acid], the IC50 was 300 to 3000 nM. `CC(C)c1cccc(-c2ccc([C@@H](Oc3cc(N4CCC5(CC4)CN[C@H](C(=O)O)C5)nc(N)n3)C(F)(F)F)cc2)c1` [Example 55ck, (S)-8-(2-amino-6-((R)-2,2,2-trifluoro-1-(3′-isopropyl-[1,1′-biphenyl]-4-yl)ethoxy)pyrimidin-4-yl)-2,8-diazaspiro[4.5]decane-3-carboxylic acid]: the 50% inhibitory concentration (IC50) was in the range of 300 to 3000 nM. The value for `Nc1nc(O[C@H](c2ccc(-c3ccc(Cl)c(Cl)c3)cc2)C(F)(F)F)cc(N2CCC3(CC2)CN[C@H](C(=O)O)C3)n1` [Example 55cl, (S)-8-(2-amino-6-((R)-1-(3′,4′-dichloro-[1,1′-biphenyl]-4-yl)-2,2,2-trifluoroethoxy)pyrimidin-4-yl)-2,8-diazaspiro[4.5]decane-3-carboxylic acid] was 50 to 300 nM; that for `Nc1nc(O[C@H](c2ccc(-c3ccc(OC(F)(F)F)cc3)cc2)C(F)(F)F)cc(N2CCC3(CC2)CN[C@H](C(=O)O)C3)n1` [Example 55cm, (S)-8-(2-amino-6-((R)-2,2,2-trifluoro-1-(4′-(trifluoromethoxy)-[1,1′-biphenyl]-4-yl)ethoxy)pyrimidin-4-yl)-2,8-diazaspiro[4.5]decane-3-carboxylic acid] was 300 to 3000 nM; that for `Cc1cccc(-c2ccc([C@@H](Oc3cc(N4CCC5(CC4)CN[C@H](C(=O)O)C5)nc(N)n3)C(F)(F)F)cc2)c1C` [Example 55cn, (S)-8-(2-amino-6-((R)-1-(2′,3′-dimethyl-[1,1′-biphenyl]-4-yl)-2,2,2-trifluoroethoxy)pyrimidin-4-yl)-2,8-diazaspiro[4.5]decane-3-carboxylic acid] was 300 to 3000 nM.

For `Cc1cc(Cl)ccc1-c1ccc([C@@H](Oc2cc(N3CCC4(CC3)CN[C@H](C(=O)O)C4)nc(N)n2)C(F)(F)F)cc1` [Example 55cp, (S)-8-(2-amino-6-((R)-1-(4′-chloro-2′-methyl-[1,1′-biphenyl]-4-yl)-2,2,2-trifluoroethoxy)pyrimidin-4-yl)-2,8-diazaspiro[4.5]decane-3-carboxylic acid], the IC50 was 300 to 3000 nM.

With `Cc1cc(C)cc(-c2ccc([C@@H](Oc3cc(N4CCC5(CC4)CN[C@H](C(=O)O)C5)nc(N)n3)C(F)(F)F)cc2)c1` [Example 55cq, (S)-8-(2-amino-6-((R)-1-(3′,5′-dimethyl-[1,1′-biphenyl]-4-yl)-2,2,2-trifluoroethoxy)pyrimidin-4-yl)-2,8-diazaspiro[4.5]decane-3-carboxylic acid], the IC50 was 50 to 300 nM. For the compound `Nc1nc(O[C@H](c2ccc(-c3ccc(F)c(F)c3)cc2)C(F)(F)F)cc(N2CCC3(CC2)CN[C@H](C(=O)O)C3)n1` [Example 55cr, (S)-8-(2-amino-6-((R)-1-(3′,4′-difluoro-[1,1′-biphenyl]-4-yl)-2,2,2-trifluoroethoxy)pyrimidin-4-yl)-2,8-diazaspiro[4.5]decane-3-carboxylic acid], the concentration for half-maximal inhibition (IC50) is 300 to 3000 nM. On to `Cc1ccc(C)c(-c2ccc([C@@H](Oc3cc(N4CCC5(CC4)CN[C@H](C(=O)O)C5)nc(N)n3)C(F)(F)F)cc2)c1` [Example 55cs, (S)-8-(2-amino-6-((R)-1-(2′,5′-dimethyl-[1,1′-biphenyl]-4-yl)-2,2,2-trifluoroethoxy)pyrimidin-4-yl)-2,8-diazaspiro[4.5]decane-3-carboxylic acid], for which the IC50 was in the range of 300 to 3000 nM.

Regarding `CCCCc1ccc(-c2ccc([C@@H](Oc3cc(N4CCC5(CC4)CN[C@H](C(=O)O)C5)nc(N)n3)C(F)(F)F)cc2)cc1` [Example 55ct, (S)-8-(2-amino-6-((R)-1-(4′-butyl-[1,1′-biphenyl]-4-yl)-2,2,2-trifluoroethoxy)pyrimidin-4-yl)-2,8-diazaspiro[4.5]decane-3-carboxylic acid], the half-maximal inhibitory concentration (IC50) lay in the range of 300 to 3000 nM. As to `Cc1ccc(-c2ccc([C@@H](Oc3cc(N4CCC5(CC4)CN[C@H](C(=O)O)C5)nc(N)n3)C(F)(F)F)cc2)cc1F` [Example 55cu, (S)-8-(2-amino-6-((R)-2,2,2-trifluoro-1-(3′-fluoro-4′-methyl-[1,1′-biphenyl]-4-yl)ethoxy)pyrimidin-4-yl)-2,8-diazaspiro[4.5]decane-3-carboxylic acid], the 50% inhibitory concentration (IC50) was in the range of 300 to 3000 nM. Consider `CS(=O)(=O)c1ccc(-c2ccc([C@@H](Oc3cc(N4CCC5(CC4)CN[C@H](C(=O)O)C5)nc(N)n3)C(F)(F)F)cc2)cc1` [Example 55cv, (S)-8-(2-amino-6-((R)-2,2,2-trifluoro-1-(4′-(methylsulfonyl)-[1,1′-biphenyl]-4-yl)ethoxy)pyrimidin-4-yl)-2,8-diazaspiro[4.5]decane-3-carboxylic acid], for which the IC50 was 300 to 3000 nM. For the compound `Cc1ccc(-c2ccc([C@@H](Oc3cc(N4CCC5(CC4)CN[C@H](C(=O)O)C5)nc(N)n3)C(F)(F)F)cc2)cc1` [Example 55cw, (S)-8-(2-amino-6-((R)-2,2,2-trifluoro-1-(4′-methyl-[1,1′-biphenyl]-4-yl)ethoxy)pyrimidin-4-yl)-2,8-diazaspiro[4.5]decane-3-carboxylic acid], the IC50 was in the range of 300 to 3000 nM. The value for `Cc1cccc(-c2ccc([C@@H](Oc3cc(N4CCC5(CC4)CN[C@H](C(=O)O)C5)nc(N)n3)C(F)(F)F)cc2)c1` [Example 55cx, (S)-8-(2-amino-6-((R)-2,2,2-trifluoro-1-(3′-methyl-[1,1′-biphenyl]-4-yl)ethoxy)pyrimidin-4-yl)-2,8-diazaspiro[4.5]decane-3-carboxylic acid] was 300 to 3000 nM.
